In paper doi:10.1101/2024.05.07.592940v1 (biorxiv, 2024) one finds IC50 and Kd data, which are given here for two compounds.

Where a chain is given by its changes, count along the chain named.

One test concerns the target T1, PTP1B (Homo sapiens, UniProt P18031).
T1 sequence (P18031 1-321): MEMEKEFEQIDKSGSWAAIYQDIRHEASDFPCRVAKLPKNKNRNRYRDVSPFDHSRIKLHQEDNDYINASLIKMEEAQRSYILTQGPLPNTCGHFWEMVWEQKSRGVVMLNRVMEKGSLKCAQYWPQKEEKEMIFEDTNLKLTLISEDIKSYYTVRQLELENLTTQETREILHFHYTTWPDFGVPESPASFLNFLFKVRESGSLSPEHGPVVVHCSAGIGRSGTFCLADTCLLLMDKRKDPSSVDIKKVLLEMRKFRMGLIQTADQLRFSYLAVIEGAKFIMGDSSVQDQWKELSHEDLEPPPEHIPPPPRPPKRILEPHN
Put plainly: pNPP hydrolysis, absorbance […] nm. The format is biochemical.

In test [1] the target is T2, PTPN2 (Homo sapiens, UniProt P17706).
T2 sequence (P17706 1-314): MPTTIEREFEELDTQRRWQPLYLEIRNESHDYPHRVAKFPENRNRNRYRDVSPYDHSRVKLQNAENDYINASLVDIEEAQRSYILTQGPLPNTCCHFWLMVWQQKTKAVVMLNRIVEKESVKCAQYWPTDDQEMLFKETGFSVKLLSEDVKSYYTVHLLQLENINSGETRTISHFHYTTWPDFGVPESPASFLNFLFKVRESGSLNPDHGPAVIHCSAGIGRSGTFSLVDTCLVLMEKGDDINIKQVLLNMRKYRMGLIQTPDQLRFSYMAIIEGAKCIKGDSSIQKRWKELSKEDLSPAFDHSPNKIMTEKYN
Put plainly: pNPP hydrolysis, absorbance […] nm. Type of test: biochemical.

For test [2], the target named is T2, PTPN2. Put plainly: microscale thermophoresis. The format is binding. In general terms: Microscale thermophoresis detects binding through changes in fluorescence in a small temperature gradient.
Test [3] addresses T3, PTPN2 (Homo sapiens, UniProt P17706, C216G).
T3 sequence (P17706 1-314 C216G): T2 sequence (P17706 1-314) with C216G
Put plainly: microscale thermophoresis. Type of test: binding.

For the compound `O=c1sn(-c2cccc3ccccc23)c(=O)n1Cc1ccccc1` [NP-12], the IC50 came to 4.66 µM at PTP1B and 3.23 µM against PTPN2 [1].
For the compound `O=c1sn(CCOc2ccc([N+](=O)[O-])cc2)c(=O)n1Cc1ccccc1` [K73], the IC50 on PTP1B amounted to 4.27 µM; at PTPN2 [1], 0.324 µM. For the same compound, the dissociation constant Kd at PTPN2 [2] amounted to 0.646 µM; on PTPN2 [3] it was 31.6 µM.

For orientation: IC50 means the midpoint of a concentration-inhibition curve. A high value points to weaker potency in that assay. Broadly, the Kd is the free concentration of one partner at which half of the binding sites on the other are occupied at equilibrium, for simple one-to-one binding. Read a high Kd as a looser complex.
